Reference: US9725449B2, “Tricyclic compounds as anticancer agents” (BRISTOL-MYERS SQUIBB COMPANY, priority 2015, dated 2017)

Molecular target: BRD4 (Homo sapiens, UniProt O60885)
Assay: Time resolved fluorescence resonance energy transfer (TR-FRET) binding assay, bromodomain BRD4
Details: one of the FRET assays described; read-out: FRET BRD4 IC50

Compound | IC50 [nM]
[2H]C([2H])([2H])c1nnn(C)c1-c1cnc2c3c(N(C)C(C)C)ncc(S(C)(=O)=O)c3n([C@H](c3ccccc3)C3CCOCC3)c2c1 [Example 116, 10-Methanesulfonyl-N-methyl-5-[4-(^2H3)methyl-1-methyl-1H-1,2,3-triazol-5-yl]-8-[(S)-oxan-4-yl(phenyl)methyl]-N-(propan-2-yl)-3,8,12-triazatricyclo[7.4.0.0^2,^7]trideca-1(13),2(7),3,5,9,11-hexaen-13-amine] | < 1
Cc1noc(C)c1-c1cc2c(cn1)c1ncc(C(C)(C)O)cc1n2[C@H](c1ccccc1)C1CCOCC1 [Example 369] | < 10
COc1nc(C(C)(C)O)cc2c1c1ncc(-c3c(C)nnn3C)cc1n2[C@@H](c1ncccc1F)C1CCOCC1 [Example 311, 2-{8-[(R)-(3-Fluoropyridin-2-yl)(oxan-4-yl)methyl]-13-methoxy-5-[4-(^2H3)methyl-1-methyl-1H-1,2,3-triazol-5-yl]-3,8,12-triazatricyclo[7.4.0.0^2,^7]trideca-1(9),2(7),3,5,10,12-hexaen-11-yl}propan-2-ol] | < 10
CC(=O)c1cnc2c3ccc(-c4c(C)nnn4C)nc3n([C@@H](c3ccccc3)C3CCOCC3)c2c1 [Example 377, 1-[11-(Dimethyl-1H-1,2,3-triazol-5-yl)-8-[(R)-oxan-4-yl(phenyl)methyl]-3,8,10-triazatricyclo[7.4.0.0^2,^7]trideca-1(9),2(7),3,5,10,12-hexaen-5-yl]ethan-1-one] | < 10
COc1nccc2c3ncc(-c4c(C)nnn4C)cc3n(C(c3ccccc3F)C3CCOCC3)c12 (single isomer, unassigned) [Example 18, 5-(Dimethyl-1H-1,2,3-triazol-5-yl)-8-[(2-fluorophenyl)(oxan-4-yl)methyl]-10-methoxy-3,8,11-triazatricyclo[7.4.0.0^2,^7]trideca-1(13),2(7),3,5,9,11-hexaene] | < 10
Cc1nnn(C)c1-c1cnc2c3ccc(NC(=O)OC(C)C)nc3n([C@H](c3ccccc3)C3CCOCC3)c2c1 [Example 206, Propan-2-yl N-[5-(dimethyl-1H-1,2,3-triazol-5-yl)-8-[(S)-oxan-4-yl(phenyl)methyl]-3,8,10-triazatricyclo[7.4.0.0^2,^7]trideca-1(9),2(7),3,5,10,12-hexaen-11-yl]carbamate] | < 10
[2H]C([2H])([2H])c1nnn(C)c1-c1cnc2c3cc(C(C)(C)O)cnc3n([C@H](c3ccccc3)C3CCOCC3)c2c1 [Example 349, 2-{5-[4-(^2H3)Methyl-1-methyl-1H-1,2,3-triazol-5-yl]-8-[(S)-oxan-4-yl(phenyl)methyl]-3,8,10-triazatricyclo[7.4.0.0^2,^7]trideca-1(13),2(7),3,5,9,11-hexaen-12-yl}propan-2-ol] | < 1
Cc1nnn(C)c1-c1cnc2c3cc(Cl)ncc3n([C@H](c3ccccc3F)C3CCOCC3)c2c1 [Example 4, 12-Chloro-5-(dimethyl-1H-1,2,3-triazol-5-yl)-8-[(S)-(2-fluorophenyl)(oxan-4-yl)methyl]-3,8,11-triazatricyclo[7.4.0.0^2,^7]trideca-1(13),2(7),3,5,9,11-hexaene] | < 10
[2H]C([2H])([2H])c1nnn(C)c1-c1cnc2c3c(N[C@@H](C)C4CC4)ncc(S(C)(=O)=O)c3n([C@H](c3ccccc3)C3CCOCC3)c2c1 [Example 113, N-[(1S)-1-Cyclopropylethyl]-10-methanesulfonyl-5-[4-(^2H3)methyl-1-methyl-1H-1,2,3-triazol-5-yl]-8-[(S)-oxan-4-yl(phenyl)methyl]-3,8,12-triazatricyclo[7.4.0.0^2,^7]trideca-1(13),2(7),3,5,9,11-hexaen-13-amine] | < 1
[2H]C([2H])([2H])c1nnn(C)c1-c1cnc2c3c(OC(C)C)ncc(S(C)(=O)=O)c3n([C@H](c3ccccc3F)C3CCOCC3)c2c1 [Example 80, 8-[(S)-(2-Fluorophenyl)(oxan-4-yl)methyl]-10-methanesulfonyl-5-[4-(^2H3)methyl-1-methyl-1H-1,2,3-triazol-5-yl]-13-(propan-2-yloxy)-3,8,12-triazatricyclo[7.4.0.0^2,^7]trideca-1(13),2(7),3,5,9,11-hexaene] | < 1
[2H]C([2H])([2H])c1nnn(C)c1-c1cnc2c3cnc(-c4c(C([2H])([2H])[2H])nnn4C)cc3n([C@H](c3ccc(F)cc3)C3CCOCC3)c2c1 [Example 160, 8-[(S)-(4-Fluorophenyl)(oxan-4-yl)methyl]-5,11-bis[4-(^2H3)methyl-1-methyl-1H-1,2,3-triazol-5-yl]-3,8,12-triazatricyclo[7.4.0.0^2,^7]trideca-1(13),2(7),3,5,9,11-hexaene] | < 10
Cc1nnn(C)c1-c1cnc2c3ccc(-c4c(C)nnn4C)nc3n([C@H](c3ccccc3)C3CCOCC3)c2c1 [Example 163, 5,11-Bis(dimethyl-1H-1,2,3-triazol-5-yl)-8-[(S)-oxan-4-yl(phenyl)methyl]-3,8,10-triazatricyclo[7.4.0.0^2,^7]trideca-1(9),2(7),3,5,10,12-hexaene] | < 1
[2H]C([2H])([2H])c1nnn(C)c1-c1cnc2c3c(N[C@H](C)C4CC4)ncc(S(C)(=O)=O)c3n([C@H](c3ccccc3)C3CCOCC3)c2c1 [Example 114, N-[(1R)-1-Cyclopropylethyl]-10-methanesulfonyl-5-[4-(^2H3)methyl-1-methyl-1H-1,2,3-triazol-5-yl]-8-[(S)-oxan-4-yl(phenyl)methyl]-3,8,12-triazatricyclo[7.4.0.0^2,^7]trideca-1(13),2(7),3,5,9,11-hexaen-13-amine] | < 10
Cc1nnn(C)c1-c1cnc2c3ccc(N4CCS(=O)(=O)CC4C)nc3n([C@H](c3ccccc3)C3CCOCC3)c2c1 (stereo partly drawn) [Example 210, 4-[5-(Dimethyl-1H-1,2,3-triazol-5-yl)-8-[(S)-oxan-4-yl(phenyl)methyl]-3,8,10-triazatricyclo[7.4.0.0^2,^7]trideca-1(9),2(7),3,5,10,12-hexaen-11-yl]-3-methyl-1λ^6,4-thiomorpholine-1,1-dione] | < 10
[2H]C([2H])([2H])c1nnn(C)c1-c1cnc2c3cnc(OC)cc3n([C@H](c3ccccc3)C3CCOCC3)c2c1 [Example 287, 11-Methoxy-5-[4-(^2H3)methyl-1-methyl-1H-1,2,3-triazol-5-yl]-8-[(S)-oxan-4-yl(phenyl)methyl]-3,8,12-triazatricyclo[7.4.0.0^2,^7]trideca-1(9),2(7),3,5,10,12-hexaene] | < 1
2-{8-[(3-Fluoropyridin-2-yl)(oxan-4-yl)methyl]-11-[4-(^2H3)methyl-1-methyl-1H-1,2,3-triazol-5-yl]-3,8,10-triazatricyclo[7.4.0.0^2,^7]trideca-1(9),2,4,6,10,12-hexaen-5-yl}propan-2-ol [Example 363] | < 1
[2H]C([2H])([2H])N1CCN(c2ncc3c4ncc(-c5c(C)nnn5C)cc4n([C@H](c4ccccc4)C4CCOCC4)c3n2)CC1 [Example 156, 5-(Dimethyl-1H-1,2,3-triazol-5-yl)-11-[4-(^2H3)methylpiperazin-1-yl]-8-[(S)-oxan-4-yl(phenyl)methyl]-3,8,10,12-tetraazatricyclo[7.4.0.0^2,^7]trideca-1(9),2(7),3,5,10,12-hexaene] | < 10
Cc1nnn(C)c1-c1cnc2c3ccc(N4CCS(=O)(=O)C(C)C4)nc3n([C@H](c3ccccc3)C3CCOCC3)c2c1 (stereo partly drawn) [Example 213, 4-[5-(Dimethyl-1H-1,2,3-triazol-5-yl)-8-[(S)-oxan-4-yl(phenyl)methyl]-3,8,10-triazatricyclo[7.4.0.0^2,^7]trideca-1(9),2(7),3,5,10,12-hexaen-11-yl]-2-methyl-1λ^6,4-thiomorpholine-1,1-dione] | < 1
[2H]C([2H])([2H])c1nnn(C)c1-c1cnc2c3c(OCC4CC4)ncc(S(C)(=O)=O)c3n([C@H](c3ccccc3)C3CCOCC3)c2c1 [Example 59, 13-(Cyclopropylmethoxy)-10-methanesulfonyl-5-[4-(^2H3)methyl-1-methyl-1H-1,2,3-triazol-5-yl]-8-[(S)-oxan-4-yl(phenyl)methyl]-3,8,12-triazatricyclo[7.4.0.0^2,^7]trideca-1(13),2(7),3,5,9,11-hexaene] | < 1
Cc1noc(C)c1-c1cnc2c3cnc(C(C)(C)O)cc3n([C@H](c3ccc(F)cc3)C3CCOCC3)c2c1 [Example 331, 2-[5-(Dimethyl-1,2-oxazol-4-yl)-8-[(S)-(4-fluorophenyl)(oxan-4-yl)methyl]-3,8,12-triazatricyclo[7.4.0.0^2,^7]trideca-1(9),2(7),3,5,10,12-hexaen-11-yl]propan-2-ol] | < 10
[2H]C([2H])([2H])c1nnn(C)c1-c1cnc2c3c(OC(C)C)nccc3n([C@H](c3ccccc3)C3CCOCC3)c2c1 [Example 131, 5-[4-(^2H3)Methyl-1-methyl-1H-1,2,3-triazol-5-yl]-8-[(S)-oxan-4-yl(phenyl)methyl]-13-(propan-2-yloxy)-3,8,12-triazatricyclo[7.4.0.0^2,^7]trideca-1(13),2(7),3,5,9,11-hexaene] | < 10
CCN(CCN(C)C)c1ccc2c3ncc(-c4c(OC)nnn4C)cc3n([C@H](c3ccccc3F)C3CCOCC3)c2n1 [Example 257, N-[2-(Dimethylamino)ethyl]-N-ethyl-8-[(S)-(2-fluorophenyl)(oxan-4-yl)methyl]-5-(4-methoxy-1-methyl-1H-1,2,3-triazol-5-yl)-3,8,10-triazatricyclo[7.4.0.0^2,^7]trideca-1(13),2(7),3,5,9,11-hexaen-11-amine] | < 1
Cc1nnn(C)c1-c1cnc2c3cncc(S(C)(=O)=O)c3n(C(c3ccccc3)C3CCC(F)(F)CC3)c2c1 (stereo not shown) [Example 289, 8-[(4,4-Difluorocyclohexyl)(phenyl)methyl]-5-(dimethyl-1H-1,2,3-triazol-5-yl)-10-methanesulfonyl-3,8,12-triazatricyclo[7.4.0.0^2,^7]trideca-1(13),2(7),3,5,9,11-hexaene] | < 1500
2-{11-Chloro-5-[4-(^2H3)methyl-1-methyl-1H-1,2,3-triazol-5-yl]-8-[(S)-oxan-4-yl(phenyl)methyl]-3,8,12-triazatricyclo[7.4.0.0^2,^7]trideca-1(13),2(7),3,5,9,11-hexaen-13-yl}propan-2-ol [Example 293] | < 10
Cc1nnn(C)c1-c1ccc2c3ncc(C(C)(C)O)cc3n([C@H](c3ccccc3)C3CCOCC3)c2n1 [Example 380] | < 10
